Data: US20180037909A1, “MODIFIED CANCER CELL LINES AND USES THEREOF” (Chang Gung Memorial Hospital, Linkou, priority 2016, published 2018)

What was measured:
MCF7 breast cancer cells = test: Cell growth monitored by xCELLigence System; type: cell-based; settings: FIG. 9
Procedure: An in vitro evaluation of the effect of ST3Gal1 siRNA (to knock down ST3Gal1 expression) and anti-cancer agent was performed using breast cancer cells.
MCF7 breast cancer cells were treated with one of the regimes in Table 2 and cell growth was monistored by xCELLigence System (ACEA Biosciences, Inc., USA)

[1] = target: CD55 from MDA-MB-231 breast cancer cells transfected with ST3Gal1 siRNA (UniProt P08174); test: CD55 signal in PNA precipitate of lysate, ST3Gal1 siRNA cells against scramble siRNA cells
[2] = tested on: C3 deposit on breast cancer cells; test: C3 deposition on cancer cell surface by flow cytometry with anti-C3 antibody; type: cell-based; settings: human serum, non-lytic conditions
Procedure: An in vitro evaluation was performed to assess the decay-accelerating ability of ST3Gal1 silenced breast cancer cells with de-sialylated CD55, by measuring the deposition of C3 fragments on the cancer cell surface.
Breast cancer cells were incubated under non-lytic conditions with human serum and deposited C3 were detected by flow cytometric analysis using anti-C3 antibody. […] There is minimal C3 deposit in both scramble RNA (sc) and ST3Gal1 siRNA (si) transfected breast cancer cells in the absence of anti-HLA antibody (geometric mean fluorescence: sc, 31.5±0.2×10^3; si, 35.2±0.6×10^3).

ST3Gal1 mRNA = ST3Gal1 mRNA expression by qPCR, normalized to GAPDH mRNA; type: cell-based; settings: MDA-MB-231 breast cancer cells; for expression of ST3Gal1 RNA compared to sc RNA, siRNA-A or pVoid transfected cells: FIG. 8A-8C
Procedure: MDA-MB-231 breast cancer cells (available from Bioresource Collection and Research Center, Taiwan) were transfected with scramble siRNA (sc) or ST3Gal1 (si) siRNA with an antisense strand (SEQ ID NO:2) and a sense strand (SEQ ID NO:3). The expression levels of the ST3Gal1 mRNA were analyzed by qPCR analysis and normalized to GAPDH mRNA levels.
MDA-MB-231 breast cancer cells were transfected with scramble siRNA (sc), a vector without shRNA (pVoid), shRNA1-3 (SEQ ID NO:11), shRNA 1-4 (SEQ ID NO:12), or the siRNA listed in Table 1 below:
The expression levels of the ST3Gal1 mRNA were analyzed by qPCR analysis and normalized to GAPDH mRNA levels.

CD55 [3] = test: PNA lectin blot / PNA precipitation of cell lysates with mass spectrometry and CD55 blot; type: cell-based; settings: breast cancer cells
Procedure: To examine the protein target of ST3Gal1 in breast cancer cells, total cell lysates from scramble or ST3Gal1 siRNA treated breast cancer cells were prepared for PNA lectin blot analysis after precipitation with agarose bound PNA. ST3Gal1 catalyzes the sialylation of galactosyl (β-1, 3) N-acetylgalactosamine, by adding sialic acid to Core 1 O-glycans. Since Peanut agglutinin (PNA) binds preferentially to Core 1 O-glycans (without the added sialic acid), ST3Gal1 knock down is expected to increase PNA binding to Core 1 O-glycans.
As expected, PNA-binding signals in breast cancer cells increased at about 72, 130 and 250 kDa molecular weight, after ST3Gal1 knock down (FIG. 1B). Using in-gel digestion and LTQ-FTD MASS spectrometry, CD55 was identified as one of the PNA-binding proteins with increased signal (by 2.6 folds) after ST3Gal1 knock down and the molecular weight of CD55 is slightly lower in ST3Gal1 silenced cells (FIG. 1C). However, the total CD55 protein levels remained similar (sc vs. si: 1.0 vs. 1.1) (FIG. 1D).

CD55 [4] = test: LC-MS/MS analysis of released, permethylated O-glycans of CD55; settings: ST3Gal1 silenced vs sc transfected breast cancer cells
Excerpt: The bi- and tri-antennary structures were all detected as glycoforms of the expected tryptic peptide […], previously reported as the single N-linked glycosylation site. […] The sialylation of core 1 and core 2 O-glycan on CD55 regulates the activity of CD55.
Impairment of 2-3-sialylation of the O-glycans of the CD55 molecule increases non-sialylated core 1 and monosialylated core 2, at the expenses of disialylated core 2 structure. On the other hand, the relative amount of the monosialylated core 1 O-glycan of the CD55 molecule (m/z 895.462) was similar in ST3Gal1 silenced and sc transfected breast cancer cells, probably due to compensation of 2-6-sialylation.

MDA-MB-231 cells = test: ADCC assay with human PBMC effectors and anti-SSEA4 antibody; type: cell-based; settings: anti-SSEA4 antibody, Effector:Target ratio 10:1
Procedure: (§1) MDA-MB-231 breast cancer cells were transfected with scramble RNA (sc) or ST3Gal1 siRNA (si) according to Example 1. After four days, cells were collected and analyzed for the expression of membrane complement regulatory proteins (mCRPs) and target antigen by fluorescence-activated cell sorting (FACS). There was no change in the expression levels of mCRPs (CD46, CD55, and CD59) and target antigens (HLA and SSEA4) with ST3Gal1 silencing.
ADCC assay was performed using human PBMC cells as effectors, anti-SSEA4 as antibody, and ST3Gal1siRNA transfected MDA-MB-231 cells as targets. […] The mean percentages of lysis are 24.2±1.7% and 41.5±2.4% for sc and si, respectively at Effector:Target ratio of 10:1 ratio (E/T10), and the difference is statistically significant.

[5] = tested on: neuroblastoma cells (SH-SY5Y); test: AlamarBlue cell proliferation assay; type: cell-based; settings: fluorescence 590 nm, FIG. 7B
Procedure: (§2) Prostate cancer cells (PC3, Bioresource Collection and Research Center, Taiwan) and neuroblastoma cells (SH-SY5Y, obtained from Professor Yi-Cheng Chen, Mackay Medical College, Taiwan) were transfected with a scramble RNA (sc) or ST3Gal1 siRNA (si) according to Example 1. The cell proliferation was determined by AlamarBlue assay using Victor X3 plate reader to measure the fluorescence (590 nm) that was used to present the level of cell proliferation.

[6] = tested on: Prostate cancer cells (PC3); test: AlamarBlue cell proliferation assay; type: cell-based; settings: fluorescence 590 nm, FIG. 7A
Procedure: as §2

[7] = tested on: mCRPs (CD46, CD55, and CD59) and target antigens (HLA and SSEA4); test: FACS expression of membrane complement regulatory proteins and target antigens; type: cell-based; settings: MDA-MB-231, four days after transfection
Excerpt: as §1

CD46 and CD59 = test: Western blot of CDC regulatory proteins; type: cell-based; settings: breast cancer cells; FIG. 2B
Excerpt: In addition, the expression levels of CD46 or CD59 were unaffected in breast cancer cells transfected with ST3Gal1 siRNA.

Chain of UniProt P08174 (P08174 35-353 limits assumed): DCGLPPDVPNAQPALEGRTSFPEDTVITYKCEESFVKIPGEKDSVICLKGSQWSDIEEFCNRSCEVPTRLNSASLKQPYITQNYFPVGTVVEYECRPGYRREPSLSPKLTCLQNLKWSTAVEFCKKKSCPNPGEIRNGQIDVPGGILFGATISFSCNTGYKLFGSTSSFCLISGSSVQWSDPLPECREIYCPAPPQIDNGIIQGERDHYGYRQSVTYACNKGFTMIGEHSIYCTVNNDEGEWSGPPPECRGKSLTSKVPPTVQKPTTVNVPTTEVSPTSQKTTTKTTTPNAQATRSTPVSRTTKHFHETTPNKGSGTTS

Molecule `CC/C(=C(\c1ccccc1)c1ccc(OCCN(C)C)cc1)c1ccccc1` [tamoxifen] has a Cancer cell viability (MCF7 breast cancer cells) of 76%.
`COc1cc2c(Nc3ccc(Br)cc3F)ncnc2cc1OCC1CCN(C)CC1` [vandetanib] was tested, and the Cancer cell viability (MCF7 breast cancer cells) was 37.5%.
“Peanut agglutinin (PNA) (from UniProt P02872 24-259)” showed a fold increase of signal after ST3Gal1 knock down (against scramble siRNA cells) [1] of 2.6 fold.
For “ST3Gal1 siRNA: ST3Gal1 siRNA with an antisense strand (SEQ ID NO:2) and a sense strand (SEQ ID NO:3) (sense CCGGUUCCUGCAAAGAUCAGAGUGA; antisense UCACUCUGAUCUUUGCAGGAACCGG; listed as RNA, chemistry not given here)”, the “C3 deposit, geometric mean fluorescence” value ([2]; 10 μg/ml anti-HLA antibody) was 89.5±5.5×10^3, the “C3 deposit, geometric mean fluorescence” value ([2]; 25 μg/ml anti-HLA antibody) was 164.8±0.8×10^3 and the “C3 deposit, geometric mean fluorescence” value ([2]; absence of anti-HLA antibody) was 35.2±0.6×10^3. The “expression of ST3Gal1 RNA, % of that of sc transfected breast cancer cells” value (ST3Gal1 mRNA; normalized to GAPDH mRNA) was 28.5±8.2%, the “increase of CD55 PNA-binding signal after ST3Gal1 knock down” value (CD55 [3]; FIG. 1C) was 2.6 folds and the “total CD55 protein levels (sc = 1.0)” value (CD55 [3]; FIG. 1D) was 1.1. For the same molecule, the “relative amount of monosialylated core 1 O-glycan of CD55 (m/z 895.462)” value (CD55 [4]) was “similar”, the “relative amount of disialylated core 2 structure at m/z 864.426 (2+) on CD55” value (CD55 [4]; FIG. 6B) was “significantly reduced” and the “relative amount of monosialylated core 2 structure at m/z 683.839 (2+) on CD55” value (CD55 [4]; FIG. 6B) was “increased”. For the same molecule, the “mean percentage of lysis (ADCC)” value (MDA-MB-231 cells) was 41.5±2.4%, the “proliferation of neuroblastoma cells compared to sc RNA” value [5] was “significantly reduced” and the “proliferation of prostate cancer cells compared to sc RNA” value [6] was “significantly reduced”. For the same molecule, the Cancer cell viability (MCF7 breast cancer cells) was 65%, the “expression levels of mCRPs (CD46, CD55, CD59) and target antigens (HLA, SSEA4)” value [7] was “no change” and the “expression levels of CD46 or CD59” value (CD46 and CD59) was “unaffected”.
With “shRNA1-3: shRNA1-3 (SEQ ID NO:11) (CCGGGCTGGGAGATAATGTCAGCATCTCGAGATGCTGACATTATCTCCCAGCTTTTTG)” the “expression of ST3Gal1 RNA compared to sc RNA, siRNA-A or pVoid transfected cells” value (ST3Gal1 mRNA) was “reduced”.
For “shRNA1-4: shRNA 1-4 (SEQ ID NO:12) (CCGGGCGGGAGAAGAAGCCCAATAACTCGAGTTATTGGGCTTCTTCTCCCGCTTTTTG)”, the “expression of ST3Gal1 RNA compared to sc RNA, siRNA-A or pVoid transfected cells” value (ST3Gal1 mRNA) was “reduced”.
“siRNA-1: siRNA, antisense AUCUCAGGCCCAUAAGAAGACUCCC (SEQ ID NO: 4), sense GGGAGUCUUCUUAUGGGCCUGAGAU (SEQ ID NO: 5) (listed as RNA, chemistry not given here)” was tested, and the “expression of ST3Gal1 RNA compared to sc RNA, siRNA-A or pVoid transfected cells” value (ST3Gal1 mRNA) was “reduced”.
“siRNA-2: siRNA, antisense UCAUGCUGACAUUAUCUCCCAGCUC (SEQ ID NO: 6), sense GAGCUGGGAGAUAAUGUCAGCAUGA (SEQ ID NO: 7) (listed as RNA, chemistry not given here)” was tested, and the “expression of ST3Gal1 RNA compared to sc RNA, siRNA-A or pVoid transfected cells” value (ST3Gal1 mRNA) was “reduced”.
In the case of “siRNA-3: siRNA, antisense UUGAGAAGAUGACCGAGAGGAUGCC (SEQ ID NO: 8), sense GGCAUCCUCUCGGUCAUCUUCUCAA (SEQ ID NO: 9) (listed as RNA, chemistry not given here)”, the “expression of ST3Gal1 RNA compared to sc RNA, siRNA-A or pVoid transfected cells” value (ST3Gal1 mRNA) is reported as “reduced”.
